Experimental data: ChEMBL document CHEMBL4680138, “A 18β-glycyrrhetinic acid conjugate with Vorinostat degrades HDAC3 and HDAC6 with improved antitumor effects” (Eur J Med Chem, 2020)
The source made the active and inactive calls. The calls are words filed in the database; no cut-off is given here.

Tests used:
[1] = Half life in Sprague-Dawley rat at 5 mg/kg, iv measured up to 24 hrs by LC-MS/MS analysis; assay type: ADME, organism-based; conditions: in vivo
Histone deacetylase 2 = Histone deacetylase 2 (Homo sapiens, UniProt Q92769); experiment: (§1) Inhibition of recombinant human HDAC2 expressed in baculovirus infected Sf9 cells using Boc-Lys(Ac)-AMC as substrate preincubated for 15 mins followed by substrate addition and measured after 60 mins by fluorescence based assay; assay type: cell-based
HL-60 [2] = experiment: Induction of apoptosis in human HL-60 cells assessed as increase in accumulation at sub-G1 phase at 1 uM after 24 hrs by propidium iodide staining based flow cytometry (reference value: 2.72 %); assay type: functional
HL-60 [3] = experiment: Induction of apoptosis in human HL-60 cells assessed as increase in accumulation at sub-G1 phase at 2 uM after 24 hrs by propidium iodide staining based flow cytometry (reference value: 2.72 %); assay type: functional
HL-60 [4] = experiment: Induction of apoptosis in human HL-60 cells assessed as late apoptotic cells at 2 uM measured after 24 hrs by Annexin-V/FITC and propidium iodide staining based flow cytometry (reference value: 7.24 %); assay type: functional
HL-60 [5] = experiment: Induction of apoptosis in human HL-60 cells assessed as live cells at 0.5 uM measured after 24 hrs by Annexin-V/FITC and propidium iodide staining based flow cytometry (reference value: 89.29 %); assay type: functional
HL-60 [6] = experiment: Upregulation of PARP cleavage in human HL-60 cells at 2 uM measured after 12 hrs by Western blot analysis; assay type: functional, cell-based
HL-60 [7] = experiment: Induction of apoptosis in human HL-60 cells assessed as necrotic cells at 1 uM measured after 24 hrs by Annexin-V/FITC and propidium iodide staining based flow cytometry (reference value: 1.01 %); assay type: functional
Histone deacetylase 1 = Histone deacetylase 1 (Homo sapiens, UniProt Q13547); experiment: Inhibition of recombinant human C-terminal FLAG/His-tagged HDAC1 (1 to 482 residues) expressed in Sf9 insect cells using Boc-Lys (Ac)-AMC as substrate preincubated for 15 mins followed by substrate addition and measured after 60 mins by fluorescence based assay
HL-60 [8] = experiment: Induction of apoptosis in human HL-60 cells assessed as necrotic cells at 2 uM measured after 24 hrs by Annexin-V/FITC and propidium iodide staining based flow cytometry (reference value: 1.01 %); assay type: functional
[9] = AUC (0 to infinity) in Sprague-Dawley rat at 5 mg/kg, iv measured up to 24 hrs by LC-MS/MS analysis; assay type: ADME, organism-based; set-up: route intravenous, dose 5 mg/kg, time <=24; conditions: in vivo
HL-60 [10] = experiment: Induction of apoptosis in human HL-60 cells assessed as increase in accumulation at sub-G1 phase at 0.5 uM after 24 hrs by propidium iodide staining based flow cytometry (reference value: 2.72 %); assay type: functional
HL-60 [11] = experiment: Induction of apoptosis in human HL-60 cells assessed as live cells at 1 uM measured after 24 hrs by Annexin-V/FITC and propidium iodide staining based flow cytometry (reference value: 89.29 %); assay type: functional
PC-3 = experiment: Cytotoxicity against human PC-3 cells assessed as reduction in cell viability after 96 hrs by MTT assay; assay type: functional, cell-based; conditions: PC-3, 96 h
HL-60 [12] = experiment: Induction of apoptosis in human HL-60 cells assessed as early apoptotic cells at 1 uM measured after 24 hrs by Annexin-V/FITC and propidium iodide staining based flow cytometry (reference value: 2.46 %); assay type: functional
[13] = molecular target: Histone deacetylase 3/Nuclear receptor corepressor 2 (HDAC3/NCoR2) (Homo sapiens, UniProt O15379); experiment: as §1, with “of C-terminal His-tagged” for “of”, “HDAC3 (1 to 428 residues)/N-terminal GST-tagged recombinant human NCoR2 (395 to 489 residues) co-expressed” for “HDAC2 expressed”
HL-60 [14] = experiment: Antiproliferative activity against human HL-60 cells assessed as cell growth inhibition after 72 hrs by trypan blue staining based cell counting assay; assay type: functional; conditions: HL-60, 72 h
HL-60 [15] = experiment: Induction of apoptosis in human HL-60 cells assessed as live cells at 2 uM measured after 24 hrs by Annexin-V/FITC and propidium iodide staining based flow cytometry (reference value: 89.29 %); assay type: functional
[16] = molecular target: T1, Protein deacetylase HDAC6 (Homo sapiens, UniProt Q9UBN7); experiment: Inhibition of recombinant C-terminal FLAG-tagged full length human HDAC6 expressed in baculovirus infected Sf9 cells using Boc-Lys(Ac)-AMC as substrate preincubated for 15 mins followed by substrate addition and measured after 60 mins by fluorescence based assay
T1 sequence (Q9UBN7 whole entry): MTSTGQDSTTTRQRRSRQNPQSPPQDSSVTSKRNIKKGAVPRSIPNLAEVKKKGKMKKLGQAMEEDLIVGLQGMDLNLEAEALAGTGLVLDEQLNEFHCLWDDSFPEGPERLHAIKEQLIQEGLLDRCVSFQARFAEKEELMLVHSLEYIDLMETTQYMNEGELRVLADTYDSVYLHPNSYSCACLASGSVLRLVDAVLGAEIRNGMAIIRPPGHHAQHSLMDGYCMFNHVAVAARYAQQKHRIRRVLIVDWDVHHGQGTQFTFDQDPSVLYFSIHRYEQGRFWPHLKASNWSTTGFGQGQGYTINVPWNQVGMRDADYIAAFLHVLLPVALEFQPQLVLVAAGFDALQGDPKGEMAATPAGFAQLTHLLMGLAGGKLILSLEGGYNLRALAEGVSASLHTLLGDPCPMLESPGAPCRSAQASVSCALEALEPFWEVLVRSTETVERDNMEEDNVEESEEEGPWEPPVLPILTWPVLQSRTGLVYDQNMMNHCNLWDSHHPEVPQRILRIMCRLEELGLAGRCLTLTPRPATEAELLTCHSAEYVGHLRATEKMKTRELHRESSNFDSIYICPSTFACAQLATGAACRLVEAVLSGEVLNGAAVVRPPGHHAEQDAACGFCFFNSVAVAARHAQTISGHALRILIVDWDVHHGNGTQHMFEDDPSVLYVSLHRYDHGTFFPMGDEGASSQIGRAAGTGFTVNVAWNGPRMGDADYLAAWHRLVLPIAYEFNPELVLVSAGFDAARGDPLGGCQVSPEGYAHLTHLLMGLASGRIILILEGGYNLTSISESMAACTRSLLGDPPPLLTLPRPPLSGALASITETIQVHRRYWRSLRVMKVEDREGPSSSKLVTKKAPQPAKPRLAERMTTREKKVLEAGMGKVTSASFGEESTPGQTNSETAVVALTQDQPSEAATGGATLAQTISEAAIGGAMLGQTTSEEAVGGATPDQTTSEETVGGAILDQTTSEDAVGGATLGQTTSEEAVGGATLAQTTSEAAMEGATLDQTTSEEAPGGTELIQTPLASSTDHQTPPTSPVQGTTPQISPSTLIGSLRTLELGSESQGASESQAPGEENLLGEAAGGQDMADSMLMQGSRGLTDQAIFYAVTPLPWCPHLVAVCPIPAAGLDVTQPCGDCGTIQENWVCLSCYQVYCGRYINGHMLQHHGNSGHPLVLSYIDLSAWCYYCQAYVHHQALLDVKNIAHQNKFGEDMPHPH

HL-60 [17] = experiment: Induction of apoptosis in human HL-60 cells assessed as early apoptotic cells at 2 uM measured after 24 hrs by Annexin-V/FITC and propidium iodide staining based flow cytometry (reference value: 2.46 %); assay type: functional
HL-60 [18] = experiment: Induction of apoptosis in human HL-60 cells assessed as necrotic cells at 0.5 uM measured after 24 hrs by Annexin-V/FITC and propidium iodide staining based flow cytometry (reference value: 1.01 %); assay type: functional
HL-60 [19] = experiment: Induction of apoptosis in human HL-60 cells assessed as late apoptotic cells at 0.5 uM measured after 24 hrs by Annexin-V/FITC and propidium iodide staining based flow cytometry (reference value: 7.24 %); assay type: functional
HL-60 [20] = experiment: Induction of apoptosis in human HL-60 cells assessed as early apoptotic cells at 0.5 uM measured after 24 hrs by Annexin-V/FITC and propidium iodide staining based flow cytometry (reference value: 2.46 %); assay type: functional
HL-60 [21] = experiment: Upregulation of acetylated alpha-tubulin level in human HL-60 cells at 2 uM measured after 12 hrs by Western blot analysis; assay type: functional, cell-based
HL-60 [22] = experiment: Upregulation of acetylated H3 level in human HL-60 cells at 2 uM measured after 12 hrs by Western blot analysis; assay type: functional, cell-based
HL-60 [23] = experiment: Induction of apoptosis in human HL-60 cells assessed as late apoptotic cells at 1 uM measured after 24 hrs by Annexin-V/FITC and propidium iodide staining based flow cytometry (reference value: 7.24 %); assay type: functional
[24] = Cmax in Sprague-Dawley rat at 5 mg/kg, iv measured up to 24 hrs by LC-MS/MS analysis; assay type: ADME, organism-based; set-up: route intravenous, dose 5 mg/kg, time <=24; conditions: in vivo

Sequence of Histone deacetylase 2 (Q92769 whole entry): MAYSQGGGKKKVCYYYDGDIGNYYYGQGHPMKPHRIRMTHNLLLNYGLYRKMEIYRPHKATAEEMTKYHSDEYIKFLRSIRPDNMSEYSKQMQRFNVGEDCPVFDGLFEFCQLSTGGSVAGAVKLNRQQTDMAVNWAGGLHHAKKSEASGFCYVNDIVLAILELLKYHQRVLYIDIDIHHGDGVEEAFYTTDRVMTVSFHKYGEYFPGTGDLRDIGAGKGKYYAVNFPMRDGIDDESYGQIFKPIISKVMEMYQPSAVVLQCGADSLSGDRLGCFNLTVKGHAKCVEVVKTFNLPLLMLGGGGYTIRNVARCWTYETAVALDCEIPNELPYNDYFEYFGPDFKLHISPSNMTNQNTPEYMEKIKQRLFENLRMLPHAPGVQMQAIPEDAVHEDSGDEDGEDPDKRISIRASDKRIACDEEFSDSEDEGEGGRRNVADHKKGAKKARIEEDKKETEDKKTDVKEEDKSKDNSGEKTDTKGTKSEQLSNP
Sequence of Histone deacetylase 1 (Q13547 whole entry, the tested form may be a part): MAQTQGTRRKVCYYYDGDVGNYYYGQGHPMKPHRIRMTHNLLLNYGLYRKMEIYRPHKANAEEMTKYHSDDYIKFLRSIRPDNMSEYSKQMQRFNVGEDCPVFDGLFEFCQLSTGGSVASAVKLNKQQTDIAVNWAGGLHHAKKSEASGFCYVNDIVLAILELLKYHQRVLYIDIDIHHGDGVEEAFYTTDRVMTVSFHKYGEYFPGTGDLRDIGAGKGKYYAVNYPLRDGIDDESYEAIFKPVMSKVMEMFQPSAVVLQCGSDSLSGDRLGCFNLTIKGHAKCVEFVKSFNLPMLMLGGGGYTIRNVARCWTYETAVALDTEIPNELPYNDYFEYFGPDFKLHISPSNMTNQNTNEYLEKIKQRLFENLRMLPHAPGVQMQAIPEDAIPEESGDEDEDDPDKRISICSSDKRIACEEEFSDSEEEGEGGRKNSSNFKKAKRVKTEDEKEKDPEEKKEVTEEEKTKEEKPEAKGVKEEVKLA
Sequence of Histone deacetylase 3/Nuclear receptor corepressor 2 (HDAC3/NCoR2) (O15379 whole entry, the tested form may be a part): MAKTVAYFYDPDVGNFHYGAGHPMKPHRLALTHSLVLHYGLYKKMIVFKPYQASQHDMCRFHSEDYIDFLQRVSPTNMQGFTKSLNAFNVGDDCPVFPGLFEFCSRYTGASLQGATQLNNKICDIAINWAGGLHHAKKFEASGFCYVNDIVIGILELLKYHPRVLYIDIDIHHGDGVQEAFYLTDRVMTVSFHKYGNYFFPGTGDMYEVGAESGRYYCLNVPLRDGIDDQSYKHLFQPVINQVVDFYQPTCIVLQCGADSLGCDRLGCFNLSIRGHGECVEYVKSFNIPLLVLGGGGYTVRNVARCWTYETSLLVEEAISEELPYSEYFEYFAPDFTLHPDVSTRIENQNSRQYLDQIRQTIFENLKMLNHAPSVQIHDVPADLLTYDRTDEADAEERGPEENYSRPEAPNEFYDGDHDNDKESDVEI
Sequence of Histone deacetylase 3/Nuclear receptor corepressor 2 (HDAC3/NCoR2) (Q9Y618 whole entry, further chain, the tested form may be a part): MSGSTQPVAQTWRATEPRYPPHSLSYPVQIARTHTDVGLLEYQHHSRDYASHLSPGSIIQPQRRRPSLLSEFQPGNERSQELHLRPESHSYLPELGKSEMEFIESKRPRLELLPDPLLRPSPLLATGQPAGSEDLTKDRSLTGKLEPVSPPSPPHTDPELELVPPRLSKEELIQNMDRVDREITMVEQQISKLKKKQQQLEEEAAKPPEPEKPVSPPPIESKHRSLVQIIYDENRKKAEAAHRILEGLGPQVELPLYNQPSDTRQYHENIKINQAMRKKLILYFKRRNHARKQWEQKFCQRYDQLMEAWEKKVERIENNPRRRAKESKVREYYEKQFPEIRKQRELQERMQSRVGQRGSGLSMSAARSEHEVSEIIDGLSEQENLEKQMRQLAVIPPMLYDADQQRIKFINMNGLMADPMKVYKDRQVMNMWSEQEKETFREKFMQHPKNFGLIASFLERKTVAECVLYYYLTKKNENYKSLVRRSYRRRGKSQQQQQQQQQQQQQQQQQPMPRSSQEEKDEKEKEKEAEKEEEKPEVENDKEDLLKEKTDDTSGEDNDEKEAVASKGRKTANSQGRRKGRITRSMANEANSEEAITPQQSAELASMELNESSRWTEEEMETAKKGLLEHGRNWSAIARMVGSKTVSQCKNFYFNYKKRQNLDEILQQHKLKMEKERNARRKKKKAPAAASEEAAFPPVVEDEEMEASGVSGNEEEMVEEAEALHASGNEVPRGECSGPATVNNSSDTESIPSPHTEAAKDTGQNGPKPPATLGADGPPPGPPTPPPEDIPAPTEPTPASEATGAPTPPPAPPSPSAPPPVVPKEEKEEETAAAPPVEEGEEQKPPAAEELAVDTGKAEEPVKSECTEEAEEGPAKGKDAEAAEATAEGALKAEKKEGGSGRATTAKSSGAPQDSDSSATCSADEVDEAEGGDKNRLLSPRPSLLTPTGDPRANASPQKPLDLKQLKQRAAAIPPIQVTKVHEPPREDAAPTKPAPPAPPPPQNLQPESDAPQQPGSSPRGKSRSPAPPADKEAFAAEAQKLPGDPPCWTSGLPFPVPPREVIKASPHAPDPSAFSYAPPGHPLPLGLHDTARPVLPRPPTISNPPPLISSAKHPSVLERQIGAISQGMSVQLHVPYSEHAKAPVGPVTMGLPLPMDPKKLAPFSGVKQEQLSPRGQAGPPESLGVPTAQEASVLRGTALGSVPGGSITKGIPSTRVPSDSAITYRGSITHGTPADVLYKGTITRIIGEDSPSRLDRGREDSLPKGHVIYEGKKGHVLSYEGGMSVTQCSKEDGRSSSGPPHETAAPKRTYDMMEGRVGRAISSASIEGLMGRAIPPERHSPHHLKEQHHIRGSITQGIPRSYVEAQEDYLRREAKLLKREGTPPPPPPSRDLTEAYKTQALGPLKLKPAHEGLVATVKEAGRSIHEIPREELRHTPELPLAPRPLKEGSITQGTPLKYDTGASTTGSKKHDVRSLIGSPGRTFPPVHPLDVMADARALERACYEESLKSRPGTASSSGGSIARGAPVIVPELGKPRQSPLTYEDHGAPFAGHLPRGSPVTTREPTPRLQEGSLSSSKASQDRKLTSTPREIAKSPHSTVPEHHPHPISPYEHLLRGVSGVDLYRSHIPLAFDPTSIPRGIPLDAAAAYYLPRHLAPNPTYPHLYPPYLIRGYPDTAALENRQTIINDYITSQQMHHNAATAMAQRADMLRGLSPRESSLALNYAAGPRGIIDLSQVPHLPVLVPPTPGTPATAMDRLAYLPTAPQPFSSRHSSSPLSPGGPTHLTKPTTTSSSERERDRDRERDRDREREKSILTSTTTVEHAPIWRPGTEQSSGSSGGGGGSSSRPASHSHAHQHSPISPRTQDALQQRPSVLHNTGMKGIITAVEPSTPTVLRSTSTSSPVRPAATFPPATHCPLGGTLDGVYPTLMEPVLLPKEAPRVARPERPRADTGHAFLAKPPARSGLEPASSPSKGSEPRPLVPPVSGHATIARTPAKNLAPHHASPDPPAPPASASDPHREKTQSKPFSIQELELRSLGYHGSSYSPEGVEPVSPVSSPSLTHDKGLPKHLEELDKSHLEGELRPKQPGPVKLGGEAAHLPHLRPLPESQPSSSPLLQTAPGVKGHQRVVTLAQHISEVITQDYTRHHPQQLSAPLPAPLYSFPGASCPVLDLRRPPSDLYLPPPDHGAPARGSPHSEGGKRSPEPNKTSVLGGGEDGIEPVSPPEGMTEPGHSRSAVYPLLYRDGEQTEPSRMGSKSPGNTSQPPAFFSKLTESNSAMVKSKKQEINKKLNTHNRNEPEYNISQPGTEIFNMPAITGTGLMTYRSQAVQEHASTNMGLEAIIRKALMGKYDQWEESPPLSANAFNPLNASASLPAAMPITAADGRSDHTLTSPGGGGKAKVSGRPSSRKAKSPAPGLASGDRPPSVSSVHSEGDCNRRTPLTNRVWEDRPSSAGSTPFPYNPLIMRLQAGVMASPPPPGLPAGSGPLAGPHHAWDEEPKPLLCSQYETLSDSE

CC1(C)C(=O)C(C#N)=C[C@]2(C)[C@H]3C(=O)C=C4[C@@H]5C[C@@](C)(C(=O)N6CCN(c7ccc(NC(=O)CCCCCCC(=O)NO)cc7)CC6)CC[C@]5(C)CC[C@@]4(C)[C@]3(C)CC[C@@H]12
half-life [1]: 1000 min | IC50 (Histone deacetylase 2): 4.83 µM | Activity (HL-60 [2]): 58.14% | Activity (HL-60 [3]): 76.29% | Activity (HL-60 [4]): 65.55% | Activity (HL-60 [5]): 68.63% | Activity (HL-60 [6]): Active | Activity (HL-60 [7]): 20.73% | IC50 (Histone deacetylase 1): 2510 nM | Activity (HL-60 [8]): 8.05% | AUC(0-inf) [9]: 3780 ng·h/mL | Activity (HL-60 [10]): 27.28% | Activity (HL-60 [11]): 37.66% | IC50 (PC-3): 470 nM | Activity (HL-60 [12]): 1.17% | IC50 [13]: 635 nM | IC50 (HL-60 [14]): 370 nM | Activity (HL-60 [15]): 23.9% | IC50 [16]: 368 nM | Activity (HL-60 [17]): 2.51% | Activity (HL-60 [18]): 3.91% | Activity (HL-60 [19]): 24.55% | Activity (HL-60 [20]): 2.92% | Activity (HL-60 [21]): Active | Activity (HL-60 [22]): Active | Activity (HL-60 [23]): 40.45% | Cmax [24]: 10800 ng/mL
